Residues, ends and D or L forms follow the SMILES beside them. *: point of attachment. Cbz = O=C(OCc1ccccc1)*
SMILES	logP
CCCCC1OC(=O)c2cc([N+](=O)[O-])ccc21 (configuration not stated)	2.92
COc1cc(Cl)c(NC2=NCCN2)c(Cl)c1	1.6
COc1cc(C)nn1-c1nc(C)cc(C)n1	0.73
COc1ccc(N=NN(C)C(C)=O)cc1	2.61
COCCOc1c(OC)cc(Cc2cnc(N)nc2N)cc1OC	0.56
C=Cc1cnc([N+](=O)[O-])n1C	0.64
COc1ccc(Cc2cnc(N)nc2N)cc1OCc1ccccc1	2.44
CCC(=O)N(C)c1ccc(S(=O)(=O)N(C)C)cc1	0.71
O=S1(=O)NC(C2CCC2)=Nc2ccc(Cl)cc21	2.24
CCOc1cc(Cc2cnc(N)nc2N)cc(OCC)c1N	1.69
Clc1ccc(C2NCCS2)cc1 (configuration not stated)	2.1
CC(=O)C(C#N)=NNc1cccc(Cl)c1	3.9
O=S1(=O)N=C(Cc2ccccc2)Nc2ccccc21	1.89
Clc1ccc(-c2ccc(Cl)cc2Cl)cc1	5.62
CCC(C)C(=O)NN (configuration not stated)	-0.33
N#CCN(CC#N)N=O	0.04
COC12C(COC(N)=O)C3=C(C(=O)C(C)=C(Nc4nccs4)C3=O)N1CC1NC12 (configuration not stated)	0.62
COc1cccc(/C=C/[N+](=O)[O-])c1	2.37
CCCCN(C)CCS(=O)(=O)c1cc(OC)c(OC)c(OC)c1	2.05
N#Cc1ccc(OC(=O)CNC(=O)c2ccccc2)cc1	2.11
CCCCCCOn1c(=O)[nH]c(C)c(Br)c1=O	2.48
CN(C)c1ccc(Cc2cnc(N)nc2N)cc1	1.82
Cn1ncc2ccccc2c1=O	0.61
O=C(CNC(=O)c1ccccc1)Oc1ccc(F)cc1	2.46
O=C(c1ccccc1)c1ccc(N=C=S)cc1	4.88
CC(C)C(NC(=O)C(Cc1ccccc1)NC(=O)OCc1ccccc1)C(=O)O (stereo not drawn) (Cbz-Phe-Val-OH; configuration not given here)	2.88

SMILES	logP
COc1cc(Cc2cnc(N)nc2N)c(Cl)c(OC)c1	2.13
CNc1nnc(C(C)C)c(=O)n1N	0.3
COCC(O)Cn1cc([N+](=O)[O-])nc1C (configuration not stated)	-0.36
Cc1cnc(Cc2ccc(O)cc2)s1	2.62
Cc1nnc(N)o1	-0.92
CC(C)=CC1C(C(=O)OCc2ccc(C#N)cc2)C1(C)C (configuration not stated)	4.91
CCC(C)N(C)/N=N/c1nc[nH]c1C(N)=O (configuration not stated)	1.08
COCC(O)Cn1c([N+](=O)[O-])cnc1C (configuration not stated)	0.04
CC(=O)Nc1c(C)cc(O)c(C)c1C	0.75
CNC(=O)Oc1cccc(I)c1	2.52
Cc1ccc(C(C)C)c(OC2OC(CO)C(O)C(O)C2O)c1 (configuration not stated)	1.07
CN(C)N=[N+]([O-])c1ccccc1	1.8
CCCOc1cccc(O)c1	2.59
CCOC(=O)C(C#N)=NNc1cc(Cl)c(Cl)c(Cl)c1	5.03
CCC(CC)(C(N)=O)c1ccc2c(c1)OCO2	1.59
Fc1cccc(F)c1N=C1NCCN1	0.93
O=NN(CCCl)C(=O)NC1CS(=O)(=O)CS(=O)(=O)C1	-0.94
O=C(CN1CCCCC1)Nc1ccccc1Cl	2.76
CCCOP(N)(=O)SCCC (configuration not stated)	1.23
Cc1c(N(C)C)cc(Cc2cnc(N)nc2N)cc1N(C)C	2.06
COc1cc(Cc2cnc(N)nc2N)ccc1SC	1.92
NC(=O)/C=C/c1ccc2c(c1)OCO2	1.4
CCCNc1c([N+](=O)[O-])cc(C(F)(F)F)cc1[N+](=O)[O-]	3.65
NNC(=O)NCc1ccccc1	-0.22
CCCCOn1c(=O)[nH]c(C)c(Br)c1=O	1.24
CC(=O)c1cccc(N2C(N)=NC(N)=NC2(C)C)c1	-0.22

SMILES	logP
CN(C)CCc1ccsc1	1.94
COc1cc(S(=O)(=O)CCO)cc(OC)c1OC	0.18
FC1C(Cl)C(Cl)C(Cl)C(Cl)C1Cl (configuration not stated)	3.19
COC(=O)C(C#N)=NNc1cccc(C(F)(F)F)c1	3.78
Nc1ccc(OC(=O)CNC(=O)c2ccccc2)cc1	1.01
CCCC12CC3CC(CC(N)(C3)C1)C2	3.76
Clc1cc2ccccc2nn1	1.57
NNC(=O)c1ccc(N)cc1	-0.75
COC1=C(C)C(=O)c2ccccc2C1=O	2.14
CC(=O)N(C)SN(C)C(=O)Oc1cccc2c1OC(C)(C)C2	2.7
COCCOc1ccccc1OCCOC	1.12
CCCCCCCCCCCCCC[n+]1ccc(C)cc1C.[I-]	2.47
CC1CCC(C)N1N=O (configuration not stated)	0.86
CCC1C(=O)NC(=O)N(C)C1=O (configuration not stated)	0.15
CSc1nnc(C2CCCCC2)c(=O)n1N	2.14
CCc1ccc(O[Si]23OCCN(CCO2)CCO3)cc1	0.56
O=C(NC1CC1)c1cc(N2CC2)c([N+](=O)[O-])cc1[N+](=O)[O-]	0.74
Clc1ccc(Cl)c(N=C2NCCN2)c1	2.04
CC(=O)C(=Cc1ccc(F)cc1)C(C)=O	1.65
CC(=O)Oc1ccc(C=CNC=O)cc1	1.32
Nc1nc(N)nc(-c2cccc(Br)c2)n1	2.44
COC(=O)C(C#N)=NNc1ccc2c(c1)OC(F)(F)C(F)(F)O2	4.86
Cc1ncc([N+](=O)[O-])n1CC(O)CCl (configuration not stated)	0.6
O=[N+]([O-])c1cc(Cl)c(N=C2NCCN2)c(Cl)c1	2.1
CS(=O)(=O)NN=Cc1ccccc1	1.2

Reference: the OPERA property sets (Mansouri et al. 2018)
